How the values were obtained:
GALAP = assay: Field trial in oilseed rape, preemergence weed control, visual rating; format: in vivo, galium aparine L; details: preemergence to weeds
Procedure: (§1) E=X+Y-(XY/100), […] Additional field trials were established to evaluate weed control with herbicides applied at an […] timing in oilseed rape, prior to any weed emergence. Each trial was conducted as a randomized complete block design with three replications of each treatment in plots that ranged in size from 2.5×5.o meters to 3.0×6.0 meters. […] The degree of weed control was visually evaluated and recorded at 55 to 68 days after application as a percent of weed control. Percent control is the total injury to the plants due to all factors including: stunting, malformation, chlorosis, necrosis, inhibition of emergence, and other types of plant injury.

VIOAR = assay: as above; format: in vivo, viola arvensis L; details: preemergence to weeds
Procedure: as §1

PAPRH = assay: as above; format: in vivo, papaver rhoeas L; details: preemergence to weeds
Procedure: as §1

POLCO = assay: Field trial in field corn, early postemergence weed control, visual rating; format: in vivo, polygonum convolvulus L; details: early post
Procedure: (§2) Field trials were established to evaluate weed control with herbicides applied at an early postemergence timing in field corn. Each trial was conducted as a randomized complete block design with three replications of each treatment in plots that ranged in size from 2.5×6.5 meters to 3.0×8.0 meters. Herbicide treatments in these trials included: • acetochlor at 1680 g/ha • clopyralid+picloram at 93.5+23.5 g/ha • clopyralid+picloram+aminopyralid at 72+24+12 g/ha • acetochlor+clopyralid+picloram at 1680+93.5+23.5 g/ha • acetochlor+clopyralid+picloram+aminopyralid at 1680+72+24+12 g/ha These herbicide treatments were broadcast sprayed postemergence over 1 to 3 leaf corn and 1 to 2 leaf weeds. The acetochlor formulation being used also contained furilazole safener.
(§3) The degree of weed control was visually evaluated and recorded at 40 to 71 days after application as a percent of weed control. Percent control is the total injury to the plants due to all factors including: stunting, malformation, chlorosis, necrosis, inhibition of emergence, and other types of plant injury. The control ratings range from 0 to 100 percent, where 0 represents no injury and 100 represents complete kill.
(§4) The Colby method represents a direct approach to measuring the synergistic activity of two herbicides.

CHEAL = assay: as above; format: in vivo, chenopodium album L; details: early post
Procedure: as §2, §3, §4

POLAV = assay: as above; format: in vivo, polygonum aviculare; details: early post
Procedure: as §2, §3, §4

[1] = 750 g ai/ha, 55 to 68 days after application
[2] = 1680 g ai/ha, 40 to 71 days after application

SMILES | percent of weed control (GALAP; [1]) | control of GALAP in words (synergistic action / acceptable control) (GALAP) | percent of weed control (VIOAR; [1]) | control of VIOAR in words (synergistic action / acceptable control) (VIOAR) | percent of weed control (PAPRH; [1]) | control of PAPRH in words (synergistic action / acceptable control) (PAPRH) | percent of weed control (POLCO; [2]) | control of POLCO in words (synergistic action / acceptable control) (POLCO) | control of CHEAL in words (synergistic action / acceptable control) (CHEAL) | percent of weed control (POLAV; [2]) | control of POLAV in words (synergistic action / acceptable control) (POLAV)
Cc1cccc(C)c1N(Cn1cccn1)C(=O)CCl [metazachlor, 2-chloro-N-(2,6-dimethylphenyl)-N-(1H-pyrazol-1-ylmethyl)acetamide] | 53% | did not provide acceptable control | 0% | did not provide acceptable control | 10% | did not provide acceptable control |  |  |  |  | 
CCOCN(C(=O)CCl)c1c(C)cccc1CC [acetochlor, 2-chloro-N-(ethoxymethyl)-N-(2-ethyl-6-methylphenyl)acetamide] |  |  |  |  |  |  | 52% | did not provide acceptable control | did not provide acceptable control | 58% | did not provide acceptable control
